We go through five molecules from paper PMC4301998 (Bioorganic & medicinal chemistry, 2014).

Each structure is given as a SMILES string. Where two headings read alike, the source gives them in different places.

Series [1] has as its system nine human cancer cell lines and three non-cancerous cell lines; additional colon cancer cells. The series can be described thus: MTT cell survival assay, statements over several cell lines. Particulars: for IC50: Homo sapiens. In kind it is cell-based. A general note: Tetrazolium dyes change colour on reduction, which living cells bring about.
For series [2], the system named is S1-M1-80 cells (G482 mutant ABCG2-overexpressing). The series is described as follows: MTT cytotoxicity in drug-resistant colon cancer cells. In kind it is cell-based, human. Particulars: S1-M1-80 vs S1, MTT; p < 0.001.
For series [3], the system named is HCT-116 colon cancer cells. The series can be described thus: MTT cell survival assay, HCT-116. It is filed as cell-based. Particulars: Homo sapiens, HCT-116, read-out: IC50 ± SD, HCT-116.
Another series relates to HEK293/ABCB1 cells. The series can be described thus: MTT cytotoxicity in ABCB1-overexpressing cells. It is filed as cell-based, human. Conditions: HEK293/ABCB1 vs HEK293/pcDNA3.1, MTT.
Series [4] has as its system HEK293/R2 (ABCG2-overexpressing cells). The series can be described thus: MTT cytotoxicity in ABCG2-overexpressing cells. It is filed as cell-based, human. Particulars: HEK293/R2 vs HEK293/pcDNA3.1, MTT.
The next series concerns HCT-116 cells. The series is described as follows: Chromosomal DNA fragmentation assay. Particulars: 2.5 μM, 6 hr. It is filed as cell-based, human.
The subject of series [5] is HCT-116, HCT-15, and HEK293 cells. The series can be described thus: Morphological analysis by microscopy. In kind it is cell-based, human. Particulars: 0, 0.5, 2, or 10 μM, 68 hrs of treatment; HCT-116, HCT-15, HEK293.
For another series, the target named is T1, human PXR (Homo sapiens, UniProt O75469).
T1 sequence (O75469 1-434): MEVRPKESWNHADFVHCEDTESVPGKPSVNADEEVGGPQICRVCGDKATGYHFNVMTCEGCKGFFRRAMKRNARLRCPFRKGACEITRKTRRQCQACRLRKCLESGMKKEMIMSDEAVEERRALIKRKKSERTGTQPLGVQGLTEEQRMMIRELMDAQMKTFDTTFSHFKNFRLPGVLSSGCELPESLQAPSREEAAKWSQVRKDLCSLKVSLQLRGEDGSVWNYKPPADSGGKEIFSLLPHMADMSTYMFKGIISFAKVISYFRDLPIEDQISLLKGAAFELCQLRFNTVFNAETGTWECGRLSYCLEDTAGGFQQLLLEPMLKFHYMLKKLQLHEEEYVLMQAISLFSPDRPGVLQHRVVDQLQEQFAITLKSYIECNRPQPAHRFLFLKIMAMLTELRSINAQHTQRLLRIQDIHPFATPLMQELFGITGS
The series can be described thus: PXR transactivation assay. Conditions: HepG2 reporter gene assay, 24 hr treatment, vs DMSO; IND-2 at 1 or 10 μM. For orientation: Reporter assays use an easily measured gene product as a stand-in for the process of interest.

A further series concerns HepG2 cells. Conditions: 24 hr, CellTiter-Glo.

What is called IC50 is the concentration needed to halve the response being measured. Consider `Cc1cc(N(C)C)n2nc3nc4ccccc4cc3c2n1` [IND-3, N,N,2-Trimethyl benzopyrido[2’,3’:3,4]pyrazolo[1,5-a]pyrimidin-4-amine], for which the IC50 in series [1] (read-out: IC50 values against ovarian and breast cancer cells) was in the range of 44000 to 50000 nM.
With `CCc1c2c(nc3ccc(O)cc13)-c1cc3c(c(=O)n1C2)COC(=O)[C@]3(O)CC` [SN-38], the “resistance of S1-M1-80 cells to the drug” value in series [2] is given as “significant resistance”.
On to `Cc1cc(=O)n2nc3nc4ccccc4cc3c2[nH]1` [IND-1, 2-Methylpyrimido[1”,2”:1,5]pyrazolo[3,4-b]quinoline-4(1H)-one], for which the concentration for half-maximal inhibition (IC50) in [1] (read-out: IC50 on the tested cells) is more than 40000 nM.
For the molecule `CC[C@@]1(O)C(=O)OCc2c1cc1n(c2=O)Cc2cc3c(CN(C)C)c(O)ccc3nc2-1` [topotecan], the “resistance of S1-M1-80 cells to the drug” value in series [2] is listed as “significant resistance”.
As for `Cc1cc(Cl)n2nc3nc4ccccc4cc3c2n1` [IND-2, 4-Chloro-2-methyl pyrimido[1“,2”:1,5]pyrazolo[3,4-b]quinoline], the half-inhibitory concentration (IC50) in series [3] was 634 ± 120 nM; in series [1] (DU-145, read-out: IC50 values against prostate cancer cells) it was 800 to 1200 nM; in series [1] (read-out: IC50 values on colon cancer cells), less than 1000 nM. Besides, in series [1] (colon cancer cells vs HEK293), the “selectivity for inhibition of colon cancer cells relative to HEK293 cells” value is 10-15 fold. Also, the “selectivity relative to NIH/3T3 mouse fibroblast cells and MDCK cells” value in series [1] (colon cancer cells vs NIH/3T3 and MDCK) is on record as 20-40 fold. In addition, the “selectivity for colon cancer cells relative to other cancer cells” value in series [1] (vs breast, ovarian, and hepatocellular carcinoma cells) is given as 10-30 fold. The “resistance of ABCB1-overexpressing cells” value with HEK293/ABCB1 cells is on record as “no substantial resistance”. For the same molecule, in series [4], the “resistance of ABCG2-overexpressing cells” value is given as “no substantial resistance”. Also, in the series on HCT-116 cells, the “fragmentation of chromosomal DNA” value is listed as “led to fragmentation of chromosomal DNA”. Also, the “morphological changes of cells” value in [5] is “morphological changes”. Also, the “PXR transactivation of CYP3A4 promoter activity” value at human PXR was “did not affect PXR transactivation”. Moreover, the “HepG2 cell viability (cytotoxicity)” value in the series with HepG2 cells (1 μM) is reported as “non-cytotoxic”; with HepG2 cells (10 μM), “marginally cytotoxic”.
